The values below come from article PMC3766616, “Coniferyl Ferulate, a Strong Inhibitor of Glutathione S-Transferase Isolated from Radix Angelicae sinensis, Reverses Multidrug Resistance and Downregulates P-Glycoprotein” (Evidence-based Complementary and Alternative Medicine : eCAM, 2013).

SMILES strings stand for the structures.

This experiment addresses T1, Glutathione S-transferase (mainly GSTP1-1, from human placenta) (Homo sapiens, UniProt P09211).
T1 construct: GST from human placenta (mainly GSTP1-1), Sigma
In words: GSH/CDNB conjugation assay at […] nm; Hanes plot kinetics. It is filed as biochemical.

T1 sequence (P09211 2-210): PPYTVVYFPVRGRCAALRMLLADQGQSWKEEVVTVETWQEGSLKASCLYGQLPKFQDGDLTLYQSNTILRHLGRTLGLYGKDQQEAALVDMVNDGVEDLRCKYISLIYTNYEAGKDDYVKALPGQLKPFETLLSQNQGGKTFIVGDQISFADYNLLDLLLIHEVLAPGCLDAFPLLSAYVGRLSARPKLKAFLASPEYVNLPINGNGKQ

With `COc1cc(/C=C/COC(=O)/C=C/c2ccc(O)c(OC)c2)ccc1O` [CF, Coniferyl ferulate], the IC50 – broadly, the concentration needed to halve the response being measured – came to 300 nM.
